From ChEMBL document CHEMBL5608197, “Optimization of pyrazolopyridine 4-carboxamides with potent antimalarial activity for which resistance is associated with the P. falciparum transporter ABCI3” (Eur J Med Chem, 2024)
In brackets after ≈: the same amount, converted by molar mass. Activity calls are given as the source filed them. The calls are words filed in the database; no cut-off is given here.

Columns and labels:
[1] = Toxicity in Balb/c mouse infected with asexual blood stage of Plasmodium berghei ANKA assessed as adverse effects at 25 mg/kg, po administered at 2 hrs post-infection on day 0 and then on days 1,2 and 3; assay type: organism-based; settings: in vivo, 96 h, time 4 day
Plasmodium berghei [2] = assay: Antimalarial activity against asexual blood stage of Plasmodium berghei ANKA infected in Balb/c mouse assessed as reduction in parasitemia at 25 mg/kg, po qd administered at 2 hrs post-infection on day 0 and then on days 1,2 and 3 post-infection and measured on day 2 to 4 post-infection; assay type: functional, organism-based; settings: time 3-5 day
[3] = Cytotoxicity against human HepG2 cells assessed as inhibition of cell growth incubated for 48 hrs by CellTiter-Glo luminescence assay; assay type: toxicity, cell-based
[4] = Lipophilicity, elogD of the compound in 1-Octanol/PBS at pH 7.4 at 7.5 uM incubated for 2 hrs by miniaturized shake flask method; assay type: physicochemical
[5] = Intrinsic clearance in mouse liver microsomes at 1 uM measured for 60 mins by LC-MS/MS analysis; assay type: ADME, Microsome; settings: read-out: CLH
Plasmodium falciparum [6] = assay: Antiplasmodial activity against asexual blood stage of Plasmodium falciparum 3D7 assessed as inhibition of parasite growth incubated for 72 hrs by LDH assay; assay type: functional, organism-based; settings: 3D7, 72 h
[7] = Toxicity in Balb/c mouse infected with asexual blood stage of Plasmodium berghei ANKA assessed as body weight at 25 mg/kg, po qd administered at 2 hrs post-infection on day 0 and then on days 1,2 and 3; assay type: organism-based; settings: in vivo, 96 h, time 4 day
[8] = Intrinsic clearance in human liver microsomes at 1 uM measured for 60 mins by LC-MS/MS analysis; assay type: ADME, Microsome; settings: read-out: CLH
[9] = Intrinsic clearance in rat hepatocytes at 1 uM measured per million cells for 90 mins by LC-MS/MS analysis; assay type: ADME, cell-based, Hepatocyte; settings: read-out: CLH
[10] = Aqueous solubility of the compound in PBS buffer at pH 7.4 at 200 uM incubated for 2 hrs under shaking condition by miniaturized shake flask method; assay type: physicochemical
Plasmodium berghei [11] = assay: (§1) Antimalarial activity against asexual blood stage of Plasmodium berghei ANKA infected in Balb/c mouse assessed as reduction in parasitemia at 25 mg/kg, po qd administered at 2 hrs post-infection on day 0 and then on days 1,2 and 3 post-infection and measured on day 5 to 7 post-infection by peter's test relative to control; assay type: functional; settings: time 6-8 day
Plasmodium berghei [12] = assay: as §1, with “30” for “25”, “4” for “5”, “test” for “test relative to control”; assay type: functional, organism-based; settings: time 5-8 day
Plasmodium berghei [13] = assay: Antimalarial activity against asexual blood stage of Plasmodium berghei ANKA infected in Balb/c mouse assessed as reduction in parasitemia at 30 mg/kg, po qd administered at 2 hrs post-infection on day 0 and then on days 1,2 and 3 post-infection and measured on day 2 to 4 post-infection; assay type: functional, organism-based; settings: time 3-5 day
Plasmodium falciparum [14] = assay: Antiplasmodial activity against multidrug-resistant Plasmodium falciparum K1 infected in erythrocytes assessed as inhibition of parasite growth incubated for 72 hrs by [3H]hypoxanthine incorporation based microbeta counting analysis; assay type: functional, organism-based; settings: K1, Erythrocyte
Plasmodium falciparum [15] = assay: Antimalarial activity against asexual stage of Plasmodium falciparum 3D7 infected in erythrocytes assessed as parasite killing at 10XEC50 incubated for 48 hrs with compound renewal for every 24 hrs followed by drug removal and incubation for 48 hrs with CFDA-SE labelled fresh erythrocytes by Hoechst 33342 staining based two-color flow cytometry; assay type: functional, organism-based; settings: Erythrocyte
Plasmodium falciparum [16] = assay: Antiplasmodial activity against multidrug-resistant Plasmodium falciparum NF54 infected in erythrocytes assessed as inhibition of parasite growth incubated for 72 hrs by [3H]hypoxanthine incorporation based microbeta counting analysis; assay type: functional, organism-based; settings: NF54, Erythrocyte
Plasmodium falciparum [17] = assay: Antiplasmodial activity against Plasmodium falciparum Dd2 infected in erythrocytes assessed as inhibition of parasite growth incubated for 72 hrs by [3H]hypoxanthine incorporation based microbeta counting analysis; assay type: functional, organism-based; settings: Dd2, Erythrocyte
Plasmodium falciparum [18] = assay: Antiplasmodial activity against multidrug-resistant Plasmodium falciparum Dd2 harboring DHODH-C276F mutant infected in erythrocytes assessed as inhibition of parasite growth incubated for 72 hrs by [3H]hypoxanthine incorporation based microbeta counting analysis; assay type: functional, organism-based; settings: Dd2, Erythrocyte
Plasmodium falciparum [19] = assay: Antiplasmodial activity against ring stage of Plasmodium falciparum 3D7 expressing ABCI3-HAreg assessed as inhibition of parasite proliferation incubated for 72 hrs in absence of ABCI3 inhibitor, GlcN by SYBR dye based flow cytometry; assay type: functional, organism-based; settings: 3D7, 72 h
Plasmodium falciparum [20] = assay: Antiplasmodial activity against ring stage of Plasmodium falciparum 3D7 expressing ABCI3-HAreg assessed as inhibition of parasite proliferation incubated for 72 hrs in presence of ABCI3 inhibitor, GlcN by SYBR dye based flow cytometry; assay type: functional, organism-based; settings: 3D7, 72 h
Plasmodium falciparum [21] = assay: Antiplasmodial activity against multidrug-resistant Plasmodium falciparum Cam3.1 infected in erythrocytes assessed as inhibition of parasite growth incubated for 72 hrs by [3H]hypoxanthine incorporation based microbeta counting analysis; assay type: functional, organism-based; settings: Cam3.1, Erythrocyte
Plasmodium falciparum [22] = assay: Antiplasmodial activity against multidrug-resistant Plasmodium falciparum TM90-C2B infected in erythrocytes assessed as inhibition of parasite growth incubated for 72 hrs by [3H]hypoxanthine incorporation based microbeta counting analysis; assay type: functional, organism-based; settings: Erythrocyte
Plasmodium falciparum [23] = assay: Antiplasmodial activity against multidrig-resistant Plasmodium falciparum Dd2 harboring eEF2Y-I86N mutant infected in erythrocytes assessed as inhibition of parasite growth incubated for 72 hrs by [3H]hypoxanthine incorporation based microbeta counting analysis; assay type: functional, organism-based; settings: Dd2, Erythrocyte
Plasmodium falciparum [24] = assay: Antiplasmodial activity against multidrug-resistant Plasmodium falciparum 7G8 infected in erythrocytes assessed as inhibition of parasite growth incubated for 72 hrs by [3H]hypoxanthine incorporation based microbeta counting analysis; assay type: functional, organism-based; settings: 7G8, Erythrocyte
Plasmodium falciparum [25] = assay: Antiplasmodial activity against multidrug-resistant Plasmodium falciparum Dd2 harboring CARL-I1139K mutant infected in erythrocytes assessed as inhibition of parasite growth incubated for 72 hrs by [3H]hypoxanthine incorporation based microbeta counting analysis; assay type: functional, organism-based; settings: Dd2, Erythrocyte
Plasmodium falciparum [26] = assay: Antimalarial activity against asexual stage of Plasmodium falciparum 3D7 infected in erythrocytes assessed as lag phase of parasite growth at 10XEC50 incubated for 24 hrs followed by drug removal and incubation for 48 hrs with CFDA-SE labelled fresh erythrocytes by Hoechst 33342 staining based two-color flow cytometry; assay type: functional, organism-based; settings: Erythrocyte
[27] = Ratio of EC50 for antiplasmodial activity against ring stage of Plasmodium falciparum 3D7 expressing ABCI3-HAreg in absence of ABCI3 inhibitor, GlcN to EC50 for antiplasmodial activity against ring stage of Plasmodium falciparum 3D7 expressing ABCI3-HAreg in presence of ABCI3 inhibitor, GlcN; assay type: functional
Plasmodium falciparum [28] = assay: Antiplasmodial activity against multidrug-resistant Plasmodium falciparum Dd2 harboring cyt b-I22L mutant infected in erythrocytes assessed as inhibition of parasite growth incubated for 72 hrs by [3H]hypoxanthine incorporation based microbeta counting analysis; assay type: functional, organism-based; settings: Dd2, Erythrocyte
Plasmodium falciparum [29] = assay: Antiplasmodial activity against multidrug-resistant Plasmodium falciparum Dd2 harboring PI4K-S743F mutant infected in erythrocytes assessed as inhibition of parasite growth incubated for 72 hrs by [3H]hypoxanthine incorporation based microbeta counting analysis; assay type: functional, organism-based; settings: Dd2, Erythrocyte

Cc1nn(C(C)C)c2nc(C3CC3)cc(C(=O)N3CCOc4ccncc43)c12
Activity [1]: Non-Toxic | Activity (Plasmodium berghei [2]): inactive | CC50 at 48 h [3]: 17.6 µM | logD at 2 h, 7.5 µM [4]: 4.5 | microsomal CLint at 1 µM [5]: 323 µL/min/mg | EC50 (Plasmodium falciparum [6]): 0.019 µM | Activity [7]: Non-Toxic | microsomal CLint at 1 µM [8]: 27 µL/min/mg | hepatocyte CLint at 1 µM [9]: 30 µL/min/1e6 cells | solubility thermodynamic at 2 h, 200 µM [10]: 199 µM (≈ 75.1 µg/mL) | inhibition in vivo at 25 mg/kg (Plasmodium berghei [11]): ~50%

C[C@H]1[C@H](OC(=O)CCC(=O)O)O[C@@H]2O[C@@]3(C)CC[C@H]4[C@H](C)CC[C@@H]1[C@@]24OO3
Activity (Plasmodium berghei [12]): inactive | Activity (Plasmodium berghei [13]): Active

Cc1nn(C(C)(C)C)c2nc(C3CC3)cc(C(=O)N3CCOc4ccccc43)c12
EC50 (Plasmodium falciparum [14]): 0.134 µM | CC50 at 48 h [3]: > 40 µM | Activity (Plasmodium falciparum [15]): Active | logD at 2 h, 7.5 µM [4]: 5.4 | EC50 (Plasmodium falciparum [16]): 0.046 µM | EC50 (Plasmodium falciparum [17]): 0.088 µM | EC50 (Plasmodium falciparum [18]): 0.105 µM | EC50 (Plasmodium falciparum [19]): 0.0476 µM | EC50 (Plasmodium falciparum [6]): 0.13 µM | microsomal CLint at 1 µM [8]: 206 µL/min/mg | EC50 (Plasmodium falciparum [20]): 0.0139 µM | hepatocyte CLint at 1 µM [9]: 49 µL/min/1e6 cells | EC50 (Plasmodium falciparum [21]): 0.089 µM | EC50 (Plasmodium falciparum [22]): 0.119 µM | solubility thermodynamic at 2 h, 200 µM [10]: < 2.5 µM | EC50 (Plasmodium falciparum [23]): 0.104 µM | EC50 (Plasmodium falciparum [24]): 0.114 µM | EC50 (Plasmodium falciparum [25]): 0.079 µM | Activity (Plasmodium falciparum [26]): Active | Ratio EC50 [27]: 3.4 | EC50 (Plasmodium falciparum [28]): 0.091 µM | EC50 (Plasmodium falciparum [29]): 0.101 µM
